Among the data in US10144742B2 (Millennium Pharmaceuticals, Inc., priority 2014, dated 2018) are IC50 and inhibition values, retold here.

pIC50: −log10 of the molar value. Like-named read-outs stand apart in the source and are kept apart here.

A word on the pIC50: it is −log10 of the IC50, conventionally taken in molar units. What is called inhibition is the relative decrease from the control value, in per cent.

The target of assay [1] is hNAMPT protein (Homo sapiens (Human), UniProt P43490). As to the kind of experiment: NAMPT enzyme assay (TR-FRET/HTRF, BodiPY ligand, anti 6His-Tb). It counts as binding. The settings on record: for pIC50: NAMPT IC50 range class, read-out: IC50; for inhibition at 1 µM: read-out: Percent Inhibition. The method in brief:
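Compound or DMSO was incubated for 1 h at room temperature, protected from light, with BodiPY ligand and hNAMPT labelled by terbium anti-6His antibody. The 520 nm to 486 nm emission ratio after 320 nm excitation gave inhibition versus vehicle, from which concentration-response curves yielded IC50.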
(TR-FRET usually uses a lanthanide donor and a delayed reading to cut background.)

Assay [2] has as its system PC3 cells. In words: PC3 growth inhibition (Cell-titer glo, 72 hours). The settings on record: Homo sapiens, read-out: Percent Inhibition (PC3 growth inhibition); for inhibition at 1.667 µM: compound concentration 1.667 μM. Type of assay: cell-based. In short, it runs like this:
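Compounds in AIM serum-free medium were applied for 72 h at 37 °C, 5% CO2 to PC3 cells plated overnight from RPMI1640 culture. Luminescence after 10 min CellTiter-Glo, normalised to DMSO, gave % viability at 1 μM or 1.667 μM, or GI50/LD50.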

Setting [3] is: PC-3, compound concentration 1 μM, PC3 cells, 72 hours, Cell-titer glo.
Where [4] appears, read: PC-3, PC3 cells, 72 hours, Cell-titer glo.

hNAMPT protein, sequence (P43490 whole entry): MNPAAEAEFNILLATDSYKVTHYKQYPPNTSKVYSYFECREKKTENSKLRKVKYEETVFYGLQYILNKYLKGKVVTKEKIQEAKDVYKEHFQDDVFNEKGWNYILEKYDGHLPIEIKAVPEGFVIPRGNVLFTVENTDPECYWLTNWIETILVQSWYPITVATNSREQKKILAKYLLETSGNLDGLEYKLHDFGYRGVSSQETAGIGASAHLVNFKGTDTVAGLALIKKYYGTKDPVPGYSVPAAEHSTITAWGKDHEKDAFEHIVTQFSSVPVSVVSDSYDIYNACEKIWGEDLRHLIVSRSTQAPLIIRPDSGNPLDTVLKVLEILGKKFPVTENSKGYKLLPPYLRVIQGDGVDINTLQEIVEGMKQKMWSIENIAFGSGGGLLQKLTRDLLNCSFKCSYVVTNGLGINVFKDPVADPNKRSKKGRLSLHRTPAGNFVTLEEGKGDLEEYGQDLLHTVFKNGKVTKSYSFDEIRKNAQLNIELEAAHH

In the case of `O=C(NCCCn1ccnc1)c1ccc2nc(N3CCC(N4CCCC4=O)CC3)c(-c3ccccc3)nc2c1` [Compound I-136, N-[3-(1H-imidazol-1-yl)propyl]-2-[4-(2-oxopyrrolidin-1-yl)piperidin-1-yl]-3-phenylquinoxaline-6-carboxamide], the pIC50 in assay [1] was 6.30 to 7.00. Also, the inhibition at 1 µM in assay [1] (compound concentration 1 μM) is 83%; in assay [2] (setting [3]), -7%.

Take `O=C(NCCCn1ccnc1)c1ccc2nc(N3CCC3)c(-c3ccccc3)nc2c1` [Compound I-137, 2-(Azetidin-1-yl)-N-[3-(1H-imidazol-1-yl)propyl]-3-phenylquinoxaline-6-carboxamide]: in assay [1], the pIC50 is 5.00 to 5.70 and the inhibition at 1 µM came to 18%. For the same compound, the inhibition at 1 µM in assay [2] (PC-3, 72 h) was 6%.

For `O=C(NCCCc1cncnc1)c1ccc2nc(N3CCCCC3)c(-c3ccc(F)cc3)nc2c1` [Compound I-138, 3-(4-fluorophenyl)-2-(piperidin-1-yl)-N-[3-(pyrimidin-5-yl)propyl]quinoxaline-6-carboxamide], in assay [1], the pIC50 is 6.30 to 7.00. Moreover, in assay [1] (compound concentration 1 μM), the inhibition at 1 µM came out at 86%. Further, the inhibition at 1.667 µM in assay [2] (setting [4]) was more than 99%.

For the compound `O=C(NCCn1nnnc1S)c1ccc2nc(-c3ccc(F)cc3)c(-c3ccc(F)cc3)nc2c1` [Compound I-139, 2,3-bis(4-fluorophenyl)-N-[2-(5-sulfanyl-1H-tetrazol-1-yl)ethyl]quinoxaline-6-carboxamide], the pIC50 in assay [1] was 5.70 to 6.00. Also, the values for the inhibition at 1 µM in assay [1] (compound concentration 1 μM) and in assay [2] (setting [3]) were 41% and 99%, respectively.

Take `O=C(NCCCn1ccnc1)c1ccc2nc(-c3ccc4c(c3)CCO4)c(-c3ccccc3)nc2c1` [Compound I-140, 2-(2,3-dihydro-1-benzofuran-5-yl)-N-[3-(1H-imidazol-1-yl)propyl]-3-phenylquinoxaline-6-carboxamide]: the pIC50 in assay [1] was 6.30 to 7.00. Moreover, the inhibition at 1 µM was 79% in assay [1] (compound concentration 1 μM) and -8% in assay [2] (setting [3]).

In the case of `O=C(NCCCn1ccnc1)c1ccc2nc(C3=CCOCC3)c(-c3ccccc3)nc2c1` [Compound I-141, 2-(3,6-dihydro-2H-pyran-4-yl)-N-[3-(1H-imidazol-1-yl)propyl]-3-phenylquinoxaline-6-carboxamide], the pIC50 in assay [1] is 6.30 to 7.00. The inhibition at 1 µM in assay [1] (compound concentration 1 μM) was 74%; in assay [2] (setting [3]), -8%.

`N#Cc1nc2ccc(C(=O)NCCCn3ccnc3)cc2nc1-c1ccccc1` [Compound I-142, 2-Cyano-N-[3-(1H-imidazol-1-yl)propyl]-3-phenylquinoxaline-6-carboxamide]: in assay [1], the pIC50 is 5.00 to 5.70 and the inhibition at 1 µM worked out at 24%. Moreover, in assay [2] (setting [3]), the inhibition at 1 µM was 95%.

For `Cn1cnc2cc(-c3nc4cc(C(=O)NCCCn5ccnc5)ccc4nc3-c3ccccc3)ccc21` [Compound I-143, N-[3-(1H-imidazol-1-yl)propyl]-3-(1-methyl-1H-benzimidazol-5-yl)-2-phenylquinoxaline-6-carboxamide], the pIC50 in assay [1] was 5.00 to 5.70. Also, the inhibition at 1 µM came out at 3% in assay [1] (compound concentration 1 μM) and 103% in assay [2] (setting [3]).

As to `O=C(NCCCn1ccnc1)c1ccc2nc(-c3ccccc3)c(N3CCOCC3)nc2c1` [Compound I-144, N-[3-(1H-imidazol-1-yl)propyl]-3-(morpholin-4-yl)-2-phenylquinoxaline-6-carboxamide], in assay [1], the pIC50 was 5.70 to 6.00. The results for the inhibition at 1 µM in assay [1] (compound concentration 1 μM) and in assay [2] (setting [3]) were 43% and 2%, respectively.

In the case of `NS(=O)(=O)c1ccc(-c2nc3ccc(C(=O)NCCCn4ccnc4)cc3nc2-c2ccccc2)cc1` [Compound I-145, N-[3-(1H-imidazol-1-yl)propyl]-3-phenyl-2-(4-sulfamoylphenyl)quinoxaline-6-carboxamide], the pIC50 in assay [1] was 6.30 to 7.00. Moreover, the inhibition at 1 µM in assay [1] (compound concentration 1 μM) was 76%; in assay [2] (setting [3]), -7%.

Consider `O=C(NCCCn1ccnc1)c1ccc2nc(N3CCN4CCCC4C3)c(-c3ccccc3)nc2c1` (stereo not drawn) [Compound I-146, 2-(hexahydropyrrolo[1,2-a]pyrazin-2(1H)-yl)-N-[3-(1H-imidazol-1-yl)propyl]-3-phenylquinoxaline-6-carboxamide], for which the pIC50 in assay [1] was 6.30 to 7.00. The inhibition at 1 µM in assay [1] (compound concentration 1 μM) is 76%; in assay [2] (setting [3]), -7%.

On to `O=C(NCc1ccc2nccn2c1)c1ccc2nc(N3CCOCC3)c(-c3ccc(F)cc3)nc2c1` [Compound I-147, 3-(4-fluorophenyl)-N-(imidazo[1,2-a]pyridin-6-ylmethyl)-2-(morpholin-4-yl)quinoxaline-6-carboxamide], for which, in assay [1], the pIC50 is more than 7.00. For the same compound, in assay [1] (compound concentration 1 μM), the inhibition at 1 µM was 95%. For the same compound, in assay [2] (setting [4]), the inhibition at 1.667 µM turned out to be 2%.

With `CC(C)(C)OC(=O)NCc1ccc(-c2nc3ccc(C(=O)NCCCn4ccnc4)cc3nc2-c2ccccc2)cc1` [Compound I-148, tert-Butyl [4-(6-{[3-(1H-imidazol-1-yl)propyl]carbamoyl}-3-phenylquinoxalin-2-yl)benzyl]carbamate], the pIC50 in assay [1] was 6.30 to 7.00. The values for the inhibition at 1 µM in assay [1] and in assay [2] (setting [3]) were 85% and 1%, respectively.

In the case of `O=C(NCCCn1ccnc1)c1ccc2nc(-c3ccc4[nH]ccc4c3)c(-c3ccccc3)nc2c1` [Compound I-149, N-[3-(1H-imidazol-1-yl)propyl]-2-(1H-indol-5-yl)-3-phenylquinoxaline-6-carboxamide], in assay [1], the pIC50 is 6.30 to 7.00. In addition, the inhibition at 1 µM is 86% in assay [1] (compound concentration 1 μM) and -8% in assay [2] (setting [3]).

On to `CS(=O)(=O)C1CCN(c2nc3ccc(C(=O)NCCCn4ccnc4)cc3nc2-c2ccccc2)C1` (stereo not drawn) [Compound I-150, N-[3-(1H-imidazo-1-yl)propyl]-2-[3-(methylsulfonyl)pyrrolidin-1-yl]-3-phenylquinoxaline-6-carboxamide], for which, in assay [1], the pIC50 was 6.30 to 7.00. Further, the inhibition at 1 µM in assay [1] (compound concentration 1 μM) is 75%; in assay [2] (setting [3]), -7%.

With `Cn1ccnc1CCNC(=O)c1ccc2nc(-c3ccc(F)cc3)c(-c3ccc(F)cc3)nc2c1` [Compound I-151, 2,3-Bis(4-fluorophenyl)-N-[2-(1-methyl-1H-imidazol-2-yl)ethyl]quinoxaline-6-carboxamide], in assay [1], the pIC50 was 6.30 to 7.00. Also, the inhibition at 1 µM stood at 79% in assay [1] (compound concentration 1 μM) and 96% in assay [2] (setting [3]).

Turning to `CC(C)(C)OC(=O)NCc1cccc(-c2nc3ccc(C(=O)NCCCn4ccnc4)cc3nc2-c2ccccc2)c1` [Compound I-152, tert-butyl[3-(6-{[3-(1H-imidazol-1-yl)propyl]carbamoyl}-3-phenylquinoxalin-2-yl)benzyl]carbamate], in assay [1], the negative-log IC50 (pIC50) is 6.00 to 6.30. Moreover, the figures for the inhibition at 1 µM in assay [1] (compound concentration 1 μM) and in assay [2] (setting [3]) were 62% and 3%, respectively.

`O=C(NCCCn1ccnc1)c1ccc2nc(-c3ccccc3)c(N3CCC(O)C3)nc2c1` (stereo not drawn) [Compound I-153, 3-(3-hydroxypyrrolidin-1-yl)-N-[3-(1H-imidazol-1-yl)propyl]-2-phenylquinoxaline-6-carboxamide]: in assay [1], the pIC50 is 5.00 to 5.70. Moreover, the inhibition at 1 µM in assay [1] (compound concentration 1 μM) stood at 22%; in assay [2] (setting [3]), 14%.

With `O=C(NCCCc1ncc[nH]1)c1ccc2nc(N3CC4(COC4)C3)c(-c3ccc(F)cc3)nc2c1` [Compound I-154, 3-(4-fluorophenyl)-N-[3-(1H-imidazol-2-yl)propyl]-2-(2-oxa-6-azaspiro[3.3]hept-6-yl)quinoxaline-6-carboxamide], the pIC50 in assay [1] is more than 7.00. In assay [1] (compound concentration 1 μM), the inhibition at 1 µM came to 98%. The inhibition at 1.667 µM in assay [2] (setting [4]) was determined as 2%.

As to `O=C(c1ccc2nc(-c3ccc(F)cc3)c(-c3ccc(F)cc3)nc2c1)N1CCOC(c2cccnc2)C1` (stereo not drawn) [Compound I-155, [2,3-bis(4-fluorophenyl)quinoxalin-6-yl][2-(pyridin-3-yl)morpholin-4-yl]methanone], the pIC50 in assay [1] was 5.00 to 5.70. Moreover, the inhibition at 1 µM in assay [1] (compound concentration 1 μM) is 12%; in assay [2] (setting [3]), 103%.

Turning to `O=C(NCc1ccc2nccn2c1)c1ccc2nc(N3CCC(O)CC3)c(-c3ccc(F)cc3)nc2c1` [Compound I-156, 3-(4-Fluorophenyl)-2-(4-hydroxypiperidin-1-yl)-N-(imidazo[1,2-a]pyridin-6-ylmethyl)quinoxaline-6-carboxamide], the pIC50 in assay [1] was more than 7.00. For the same compound, the inhibition at 1 µM in assay [1] (compound concentration 1 μM) amounted to 97%. Moreover, the inhibition at 1.667 µM in assay [2] (setting [4]) is 2%.

For the compound `N#Cc1cccc(-c2nc3cc(C(=O)NCCCn4ccnc4)ccc3nc2-c2ccccc2)c1` [Compound I-157, 3-(3-cyanophenyl)-N-[3-(1H-imidazol-1-yl)propyl]-2-phenylquinoxaline-6-carboxamide], the pIC50 in assay [1] is 5.70 to 6.00. For the same compound, the inhibition at 1 µM came out at 40% in assay [1] (compound concentration 1 μM) and 2% in assay [2] (setting [3]).

With `Cc1nc2ccc(C(=O)NCCCn3ccnc3)cc2nc1-c1ccccc1` [Compound I-158, N-[3-(1H-imidazol-1-yl)propyl]-2-methyl-3-phenylquinoxaline-6-carboxamide], the pIC50 in assay [1] is 5.70 to 6.00. Further, the inhibition at 1 µM in assay [1] (compound concentration 1 μM) stood at 42%; in assay [2] (setting [3]), 0%.

For the compound `O=C(NCCCn1ccnc1)c1ccc2nc(N3CC4CC4C3)c(-c3ccccc3)nc2c1` (stereo not drawn) [Compound I-159, 2-(3-azabicyclo[3.1.0]hex-3-yl)-N-[3-(1H-imidazol-1-yl)propyl]-3-phenylquinoxaline-6-carboxamide], the pIC50 in assay [1] was 6.30 to 7.00. Moreover, the inhibition at 1 µM in assay [1] (compound concentration 1 μM) was 71%; in assay [2] (setting [3]), -6%.

Regarding `O=C(NCCCn1ccnc1)c1ccc2nc(N3CCCCC3)c(-c3ccccc3)nc2c1` [Compound I-161, N-[3-(1H-imidazol-1-yl)propyl]-3-phenyl-2-(piperidin-1-yl)quinoxaline-6-carboxamide], the pIC50 in assay [1] is more than 7.00. Further, the inhibition at 1 µM in assay [1] (compound concentration 1 μM) is 89%; in assay [2] (setting [3]) it was -7%.
